Assay [1] deals with T1, human TLR7 (Homo sapiens, UniProt Q9NYK1).
T1 construct: host or cells: HEK-Blue cells
T1 sequence (Q9NYK1 27-1049): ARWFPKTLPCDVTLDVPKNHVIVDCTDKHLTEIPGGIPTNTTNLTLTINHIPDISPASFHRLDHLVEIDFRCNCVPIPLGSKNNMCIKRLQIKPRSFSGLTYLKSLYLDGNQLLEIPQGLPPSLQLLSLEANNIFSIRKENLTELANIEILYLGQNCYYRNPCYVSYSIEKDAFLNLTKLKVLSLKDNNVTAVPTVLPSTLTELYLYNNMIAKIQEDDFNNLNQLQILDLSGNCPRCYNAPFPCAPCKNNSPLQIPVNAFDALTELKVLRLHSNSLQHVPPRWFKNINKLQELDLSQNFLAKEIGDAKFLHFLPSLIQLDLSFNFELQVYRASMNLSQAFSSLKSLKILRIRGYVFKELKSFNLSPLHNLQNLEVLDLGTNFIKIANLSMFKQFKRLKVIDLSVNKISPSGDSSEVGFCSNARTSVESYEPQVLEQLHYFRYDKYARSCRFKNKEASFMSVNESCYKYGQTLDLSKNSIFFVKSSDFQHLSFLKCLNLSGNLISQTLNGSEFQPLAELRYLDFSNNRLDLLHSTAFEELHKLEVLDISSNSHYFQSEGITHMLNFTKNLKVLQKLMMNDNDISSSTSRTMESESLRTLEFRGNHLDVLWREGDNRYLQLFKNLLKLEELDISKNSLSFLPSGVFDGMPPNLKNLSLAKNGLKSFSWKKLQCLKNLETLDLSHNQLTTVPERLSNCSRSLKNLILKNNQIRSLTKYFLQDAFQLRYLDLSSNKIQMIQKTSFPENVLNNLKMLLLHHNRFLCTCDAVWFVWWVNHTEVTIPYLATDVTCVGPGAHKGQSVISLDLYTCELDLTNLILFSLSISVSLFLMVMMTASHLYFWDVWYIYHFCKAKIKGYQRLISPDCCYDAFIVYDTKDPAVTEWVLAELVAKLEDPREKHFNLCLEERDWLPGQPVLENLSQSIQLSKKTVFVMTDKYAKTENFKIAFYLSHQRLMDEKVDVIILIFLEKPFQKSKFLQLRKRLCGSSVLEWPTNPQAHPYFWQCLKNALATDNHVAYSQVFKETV
Nature of the assay: TLR7 inhibition reporter assay (HEK-Blue SEAP). It is filed as cell-based. Conditions: HEK-Blue cells overexpressing human TLR7, gardiquimod 7.5 μM, 22 hour incubation. In a few lines:
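SEAP readout via HEK-Blue Detection medium after 22 h at 37 °C, 5% CO2 defines inhibition, normalized between agonist-plus-DMSO wells and a reference inhibitor. Compound dose range 0.05 nM–50 μM; TLR7 cells at 15,000/well (gardiquimod), TLR8 at 20,000/well (R848).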

The target in assay [2] is T2, human TLR8 (Homo sapiens, UniProt Q9NR97).
T2 construct: host or cells: HEK-Blue cells
T2 sequence (Q9NR97 27-1041): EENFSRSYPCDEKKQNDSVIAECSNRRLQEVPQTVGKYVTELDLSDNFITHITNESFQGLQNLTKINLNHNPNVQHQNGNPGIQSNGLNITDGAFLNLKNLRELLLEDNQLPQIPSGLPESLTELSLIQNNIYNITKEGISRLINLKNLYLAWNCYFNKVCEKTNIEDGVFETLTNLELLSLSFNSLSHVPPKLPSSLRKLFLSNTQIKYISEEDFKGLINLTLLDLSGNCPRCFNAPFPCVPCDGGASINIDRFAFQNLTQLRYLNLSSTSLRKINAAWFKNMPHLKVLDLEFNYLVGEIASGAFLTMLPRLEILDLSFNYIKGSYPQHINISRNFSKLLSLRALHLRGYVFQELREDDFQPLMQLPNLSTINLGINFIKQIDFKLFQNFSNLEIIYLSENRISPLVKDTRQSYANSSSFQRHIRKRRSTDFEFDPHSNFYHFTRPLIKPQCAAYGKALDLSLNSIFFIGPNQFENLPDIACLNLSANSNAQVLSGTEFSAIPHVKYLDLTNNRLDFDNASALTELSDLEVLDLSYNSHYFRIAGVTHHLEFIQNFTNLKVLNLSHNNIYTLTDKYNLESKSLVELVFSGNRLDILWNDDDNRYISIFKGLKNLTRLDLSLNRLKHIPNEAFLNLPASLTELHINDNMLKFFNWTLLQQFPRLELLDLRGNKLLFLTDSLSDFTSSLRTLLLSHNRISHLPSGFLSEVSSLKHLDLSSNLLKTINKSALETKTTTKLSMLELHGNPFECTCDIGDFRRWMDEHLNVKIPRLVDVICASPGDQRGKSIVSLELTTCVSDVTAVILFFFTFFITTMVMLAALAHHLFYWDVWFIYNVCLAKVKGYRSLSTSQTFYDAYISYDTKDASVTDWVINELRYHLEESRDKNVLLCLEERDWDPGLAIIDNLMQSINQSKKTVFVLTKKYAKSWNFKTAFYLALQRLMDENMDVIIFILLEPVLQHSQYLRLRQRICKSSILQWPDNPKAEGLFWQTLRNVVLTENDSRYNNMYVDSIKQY
Nature of the assay: TLR8 inhibition reporter assay (HEK-Blue SEAP). As to conditions: HEK-Blue cells overexpressing human TLR8, R848 15.9 μM, 22 hour incubation. Type of assay: cell-based. In a few lines:
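HEK-Blue cells overexpressing human TLR7, TLR8 or TLR9 carry a SEAP reporter driven by NF-κB/AP-1 sites. Compounds (0.05 nM–50 μM) were preincubated 30 min at room temperature, then cells were stimulated with gardiquimod 7.5 μM (TLR7), R848 15.9 μM (TLR8) or ODN2006 5 nM (TLR9) for 22 h at 37 °C.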
Background: Reporter assays use an easily measured gene product as a stand-in for the process of interest.

For `COc1cc(-c2cc3[nH]c(=O)n(C4CCN(C5COC5)CC4)c3cc2C(C)C)cn2ncnc12` [Example 157, 6-isopropyl-5-(8-methoxy-[1,2,4]triazolo[1,5-a]pyridin-6-yl)-1-(1-(oxetan-3-yl)piperidin-4-yl)-1,3-dihydro-2H-benzo[d]imidazol-2-one], the concentration for half-maximal inhibition (IC50) in assay [1] is 76.8 nM; in assay [2], 5.42 nM.

As for `CCCN1CCC[C@@H](n2c(=O)[nH]c3cc(-c4cc(OC)c5ncnn5c4)c(C(C)C)cc32)C1` [Example 134, (R)-6-isopropyl-5-(8-methoxy-[1,2,4]triazolo[1,5-a]pyridin-6-yl)-1-(1-propylpiperidin-3-yl)-1,3-dihydro-2H-benzo[d]imidazol-2-one], the IC50 in assay [1] is 1.98 nM; in assay [2] it was 5.93 nM.

Regarding `COc1cc(-c2cc3[nH]c(=O)n([C@@H]4CCCN(C5COC5)C4)c3cc2C(C)C)cn2ncnc12` [Example 135, (R)-6-isopropyl-5-(8-methoxy-[1,2,4]triazolo[1,5-a]pyridin-6-yl)-1-(1-(oxetan-3-yl)piperidin-3-yl)-1,3-dihydro-2H-benzo[d]imidazol-2-one], the figures for the IC50 in assay [1] and in assay [2] were 26.3 nM and 20 nM, respectively.

For the compound `COc1cc(-c2cc3[nH]c(=O)n([C@@H]4CCCN(CC(C)(C)C)C4)c3cc2C(C)C)cn2ncnc12` [Example 153, (R)-6-isopropyl-5-(8-methoxy-[1,2,4]triazolo[1,5-a]pyridin-6-yl)-1-(1-neopentylpiperidin-3-yl)-1,3-dihydro-2H-benzo[d]imidazol-2-one], the IC50 in assay [1] turned out to be 0.58 nM; in assay [2], 2.27 nM.

For `Cc1cc(-c2cc(C)c3ncnn3c2)cc2[nH]c(=O)n(C3CCN(CC(=O)N(C)C)CC3)c12` [Example 109, N,N-dimethyl-2-(4-(7-methyl-5-(8-methyl-[1,2,4]triazolo[1,5-a]pyridin-6-yl)-2-oxo-2,3-dihydro-1H-benzo[d]imidazol-1-yl)piperidin-1-yl)acetamide], the IC50 was found to be 74.1 nM in assay [1] and 541 nM in assay [2].

Take `CCC(CC)CN1CCC[C@@H](n2c(=O)[nH]c3cc(-c4cc(OC)c5ncnn5c4)c(C(C)C)cc32)C1` [Example 148, (R)-1-(1-(2-ethylbutyl)piperidin-3-yl)-6-isopropyl-5-(8-methoxy-[1,2,4]triazolo[1,5-a]pyridin-6-yl)-1,3-dihydro-2H-benzo[d]imidazol-2-one]: the IC50 came out at 0.49 nM in assay [1] and 1.09 nM in assay [2].

Consider `CCC(CC)CN1CCC[C@@H](n2c(=O)[nH]c3cc(-c4cc(OC)c5ncnn5c4)c(C(F)(F)F)cc32)C1` [Example 117, (R)-1-(1-(2-ethylbutyl)piperidin-3-yl)-5-(8-methoxy-[1,2,4]triazolo[1,5-a]pyridin-6-yl)-6-(trifluoromethyl)-1,3-dihydro-2H-benzo[d]imidazol-2-one], for which the figures for the half-maximal inhibitory concentration (IC50) in assay [1] and in assay [2] were 64.4 nM and 33.3 nM, respectively.

Turning to `Cc1cc2c(cc1-c1cc(C)c3ncnn3c1)[nH]c(=O)n2[C@@H]1CCCN(CC#N)C1` [Example 96, (R)-2-(3-(6-methyl-5-(8-methyl-[1,2,4]triazolo[1,5-a]pyridin-6-yl)-2-oxo-2,3-dihydro-1H-benzo[d]imidazol-1-yl)piperidin-1-yl)acetonitrile], the IC50 in assay [1] is 66.1 nM; in assay [2], 45.3 nM.

`COc1cc(-c2cc3[nH]c(=O)n([C@H]4CCCN(C5CCC5)C4)c3cc2C(C)C)cn2ncnc12` [Example 122, (S)-1-(1-cyclobutylpiperidin-3-yl)-6-isopropyl-5-(8-methoxy-[1,2,4]triazolo[1,5-a]pyridin-6-yl)-1,3-dihydro-2H-benzo[d]imidazol-2-one]: the half-maximal inhibitory concentration (IC50) is 15.1 nM in assay [1] and 1.5 nM in assay [2].

For the compound `COc1cc(-c2cc3[nH]c(=O)n(C4CCN(CC5CC5)CC4)c3cc2C(C)C)cn2ncnc12` [Example 161, 1-(1-(cyclopropylmethyl)piperidin-4-yl)-6-isopropyl-5-(8-methoxy-[1,2,4]triazolo[1,5-a]pyridin-6-yl)-1,3-dihydro-2H-benzo[d]imidazol-2-one], the results for the IC50 in assay [1] and in assay [2] were 7.28 nM and 6.04 nM, respectively.

As to `Cc1cc2c(cc1-c1cc(C)c3ncnn3c1)[nH]c(=O)n2[C@@H]1CCCN(C(=O)CN(C)C)C1` [Example 104, (R)-1-(1-(dimethylglycyl)piperidin-3-yl)-6-methyl-5-(8-methyl-[1,2,4]triazolo[1,5-a]pyridin-6-yl)-1,3-dihydro-2H-benzo[d]imidazol-2-one], the IC50 in assay [1] turned out to be 71 nM; in assay [2], 47.6 nM.

For the compound `Cc1cc(-c2cc(C)c3ncnn3c2)cc2[nH]c(=O)n(C3CCN(C(C)C)CC3)c12` [Example 107, 1-(1-isopropylpiperidin-4-yl)-7-methyl-5-(8-methyl-[1,2,4]triazolo[1,5-a]pyridin-6-yl)-1,3-dihydro-2H-benzo[d]imidazol-2-one], the IC50 in assay [1] is 32.9 nM; in assay [2], 249 nM.

As to `CCN1CCC[C@@H](n2c(=O)[nH]c3cc(-c4cc(OC)c5ncnn5c4)c(C(F)(F)F)cc32)C1` [Example 110, (R)-1-(1-ethylpiperidin-3-yl)-5-(8-methoxy-[1,2,4]triazolo[1,5-a]pyridin-6-yl)-6-(trifluoromethyl)-1,3-dihydro-2H-benzo[d]imidazol-2-one], the IC50 in assay [1] amounted to 16.8 nM; in assay [2], 4.06 nM.

`COc1cc(-c2cc3[nH]c(=O)n(C4CCN(C5CCOC5)CC4)c3cc2C(C)C)cn2ncnc12` (centres unmarked) [Example 162, 6-isopropyl-5-(8-methoxy-[1,2,4]triazolo[1,5-a]pyridin-6-yl)-1-(1-(tetrahydrofuran-3-yl)piperidin-4-yl)-1,3-dihydro-2H-benzo[d]imidazol-2-one]: the IC50 in assay [1] worked out at 73 nM; in assay [2], 6.56 nM.

For `COCCN1CCC[C@@H](n2c(=O)[nH]c3cc(-c4cc(C)c5ncnn5c4)c(C)cc32)C1` [Example 97, (R)-1-(1-(2-methoxyethyl)piperidin-3-yl)-6-methyl-5-(8-methyl-[1,2,4]triazolo[1,5-a]pyridin-6-yl)-1,3-dihydro-2H-benzo[d]imidazol-2-one], the values for the IC50 in assay [1] and in assay [2] were 38.8 nM and 43.7 nM, respectively.

On to `COc1cc(-c2cc3[nH]c(=O)n([C@@H]4CCCN(CC5CCC5)C4)c3cc2C(C)C)cn2ncnc12` [Example 140, (R)-1-(1-(cyclobutylmethyl)piperidin-3-yl)-6-isopropyl-5-(8-methoxy-[1,2,4]triazolo[1,5-a]pyridin-6-yl)-1,3-dihydro-2H-benzo[d]imidazol-2-one], for which the figures for the IC50 in assay [1] and in assay [2] were 1.3 nM and 3.92 nM, respectively.

The term IC50 denotes the point on the concentration scale where inhibition reaches its midpoint.

For the origin of these results see US12187723B2 (BRISTOL-MYERS SQUIBB COMPANY, priority 2019, dated 2025).
